Data published in ChEMBL document CHEMBL1201862, “PubChem BioAssay data set” (2004).
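Cultured in 96-well plates, cells were exposed to test compound for 48 hours across five concentrations. At the GI50, growth is halved.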 Active and inactive are the calls of the source. Cut-off read from the data, not from the text of the source: active = GI50 up to about 1.1 µM and inactive = higher.

Legend:
Assay in all cases: NCI tumour cell line growth inhibition, 48 h
[1] = system: CCRF-CEM
[2] = system: LOX IMVI
[3] = system: M14
[4] = system: UACC-62
[5] = system: SK-MEL-28
[6] = system: SNB-19
[7] = system: HL-60
[8] = system: U-251
[9] = system: NCI-H460
[10] = system: SK-OV-3
[11] = system: EKVX
[12] = system: SF-539
[13] = system: HOP-62
[14] = system: SN12C

Measured: GI50

C=C1C=CC2(Br)OC3CC(C)(Cl)C(Br)CC13C2(C)C (stereo not given)
inactive: [1] 25.1 µM | [2] 18.9 µM | [3] 21.2 µM | [4] 17.8 µM | [5] 20 µM | [6] 27 µM | [7] 15.2 µM | [8] 18.8 µM | [9] 22 µM | [10] 30.5 µM | [11] 24.5 µM | [12] 18.5 µM | [13] 23.1 µM | [14] 18.9 µM

COc1cc(C(O)C(=O)c2nc3ccc([N+](=O)[O-])cc3nc2O)ccc1O (stereo not given)
inactive: [1] 40.7 µM | [2] 40.1 µM | [3] > 100 µM | [4] 73.1 µM | [5] 26.4 µM | [6] > 100 µM | [7] 70.5 µM | [8] > 100 µM | [9] > 100 µM | [10] > 100 µM | [11] 90.6 µM | [12] 58.1 µM | [13] > 100 µM | [14] > 100 µM

Cc1ccc(C)c(NC(=O)/C(=N\NC(N)=S)C(C#N)c2ccccc2)c1 (stereo not given)
inactive: [1] > 100 µM | [3] > 100 µM | [4] > 100 µM | [5] > 100 µM | [6] > 100 µM | [7] > 100 µM | [8] > 100 µM | [9] > 100 µM | [10] > 100 µM | [11] > 100 µM | [12] > 100 µM | [13] > 100 µM | [14] > 100 µM

COC(=O)C12C3C4C1C1C2C3C41C(=O)N(C(C)C)C(C)C (stereo not given)
inactive: [1] > 100 µM | [3] > 100 µM | [4] > 100 µM | [5] > 100 µM | [6] > 100 µM | [7] > 100 µM | [8] > 100 µM | [9] > 100 µM | [10] > 100 µM | [11] > 100 µM | [12] > 100 µM | [13] > 100 µM | [14] > 100 µM

NC1=NC(=O)C(CC(=O)Nc2ccc(Cl)cc2Cl)S1 (stereo not given)
inactive: [1] 5.13 µM | [2] > 100 µM | [3] > 100 µM | [4] > 100 µM | [5] > 100 µM | [6] > 100 µM | [8] > 100 µM | [9] > 100 µM | [10] > 100 µM | [11] > 100 µM | [12] > 100 µM | [13] > 100 µM | [14] > 100 µM

CCOC(=O)C1C=C2O[C@@H]3OC4(CCCCC4)O[C@@H]3C2C2C(=O)CCC(=O)[C@@]12C(=O)OC (stereo not given in full)
inactive: [1] > 100 µM | [2] > 100 µM | [3] > 100 µM | [4] > 100 µM | [5] > 100 µM | [6] > 100 µM | [7] > 100 µM | [8] > 100 µM | [9] > 100 µM | [10] > 100 µM | [11] > 100 µM | [13] > 100 µM | [14] > 100 µM
